Assay results published in US12139520B2 (priority 2020, dated 2024).
Bridge positions count the residues as written; N and C are the ends. Square brackets hold non-standard residues; d marks the D form. Peptide text beside a SMILES is read from it. Hyp = O=C(O)[C@@H]1C[C@@H](O)CN1; Cit = NC(=O)NCCC[C@H](N)C(=O)O

Tests used:
[1] = Physical stability of peptide analogues (Thioflavin T fibrillation); format: physicochemical; conditions: maximum ThT signal normalized between hAMY maximum and buffer background; 40° C., shaking, four days; pH 7 per table title
How it was run: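 Samples are stressed at 40 °C for four days, being shaken at 700 rpm before each 10-min fluorescence reading of 4 μM Thioflavin T. Buffers were pH 4 acetate or pH 7 phosphate. Reported values are smoothed maximum ThT signals as a percentage of the hAMY-to-background range.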

hAMY3 receptor = biological target: T1, hAMY3 receptor (Homo sapiens, UniProt O60896+P30988); assay: cAMP assay for in vitro receptor activation, hAMY3-R; format: cell-based; conditions: cAMP assay, hAMY3 receptor; read-out: hAMY3R EC50
T1 sequence (P30988 25-474): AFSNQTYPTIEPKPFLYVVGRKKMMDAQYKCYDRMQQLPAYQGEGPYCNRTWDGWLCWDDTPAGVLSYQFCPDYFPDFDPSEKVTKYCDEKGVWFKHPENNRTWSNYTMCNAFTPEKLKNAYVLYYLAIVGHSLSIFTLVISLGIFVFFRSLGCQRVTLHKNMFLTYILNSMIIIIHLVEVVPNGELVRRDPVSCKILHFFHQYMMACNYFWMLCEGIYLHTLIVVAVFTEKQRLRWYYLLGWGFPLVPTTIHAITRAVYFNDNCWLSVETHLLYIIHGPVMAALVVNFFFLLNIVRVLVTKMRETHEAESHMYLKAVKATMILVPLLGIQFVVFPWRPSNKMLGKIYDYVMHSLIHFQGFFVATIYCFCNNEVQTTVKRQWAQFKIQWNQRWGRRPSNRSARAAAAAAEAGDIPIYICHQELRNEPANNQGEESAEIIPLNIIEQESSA
T1 sequence (O60896 24-148 partner): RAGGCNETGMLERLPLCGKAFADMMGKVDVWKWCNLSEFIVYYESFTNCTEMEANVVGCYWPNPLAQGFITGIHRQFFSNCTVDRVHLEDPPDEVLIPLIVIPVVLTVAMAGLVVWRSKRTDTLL
How it was run: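 Monoclonal cell line stably overexpressing hAMY3 receptor, plated in DPBS with 0.05% casein and 0.5 mM IBMX, was stimulated with graded compound doses for 30 min at room temperature. cAMP accumulation was read by time-resolved FRET one hour after adding detection reagents.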

Row | Max ThT signal (%) [1] | EC50 (hAMY3 receptor) | SMILES
1 | 1.350% | 0.006 nM | CC(C)C[C@H](NC(=O)[C@H](CCCNC(N)=O)NC(=O)[C@H](CCC(N)=O)NC(=O)[C@@H](NC(=O)[C@@H](NC(=O)[C@@H]1CSSC[C@H](NC(=O)CN)C(=O)N[C@@H](CCCNC(=N)N)C(=O)N[C@@H](Cc2ccccc2)C(=O)NCC(=O)N[C@@H]([C@@H](C)O)C(=O)N1)[C@@H](C)O)C(C)C)C(=O)N[C@@H](C)C(=O)N[C@@H](Cc1c[nH]cn1)C(=O)N[C@@H](Cc1ccccc1)C(=O)N[C@@H](CC(C)C)C(=O)N[C@@H](Cc1ccc(O)cc1)C(=O)N[C@@H](CCC(N)=O)C(=O)N[C@@H](Cc1ccccc1)C(=O)N[C@H](C(=O)N[C@@H](CC(=O)O)C(=O)N[C@@H](CCCCN)C(=O)N[C@@H](CC(=O)O)C(=O)N[C@@H](CCCCN)C(=O)N[C@@H](CC(=O)O)C(=O)N[C@@H](CC(N)=O)C(=O)N[C@H](C(=O)N[C@@H](C)C(=O)N1CCC[C@H]1C(=O)N[C@@H](CCCNC(=N)N)C(=O)N[C@H](C(=O)N[C@@H](CC(N)=O)C(=O)N[C@H](C(=O)NCC(=O)N[C@@H](CO)C(=O)N[C@@H](CC(N)=O)C(=O)N[C@H](C(=O)N[C@@H](Cc1ccc(O)cc1)C(N)=O)[C@@H](C)O)C(C)C)[C@@H](C)O)C(C)C)[C@@H](C)O [compound 264] (H-GCRFGTCTVQ[Cit]LAHFLYQFTDKDKDNVAPRTNVGSNTY-NH2; disulfide 2-7)
2 | 13.450% | 0.013 nM | CC(C)C[C@H](NC(=O)[C@H](CCCNC(N)=O)NC(=O)[C@H](CCC(N)=O)NC(=O)[C@@H](NC(=O)[C@@H](NC(=O)[C@@H]1CSSC[C@H](NC(=O)CN)C(=O)N[C@@H](CCCNC(=N)N)C(=O)N[C@@H](Cc2ccccc2)C(=O)NCC(=O)N[C@@H]([C@@H](C)O)C(=O)N1)[C@@H](C)O)C(C)C)C(=O)N[C@@H](C)C(=O)N[C@@H](Cc1c[nH]cn1)C(=O)N[C@@H](Cc1ccccc1)C(=O)N[C@@H](CC(C)C)C(=O)N[C@@H](Cc1ccc(O)cc1)C(=O)N[C@@H](CCC(N)=O)C(=O)N[C@@H](Cc1ccccc1)C(=O)N[C@H](C(=O)N[C@@H](CC(=O)O)C(=O)N[C@@H](CCCCN)C(=O)N[C@@H](CC(=O)O)C(=O)N[C@@H](CCCCN)C(=O)N[C@@H](CC(=O)O)C(=O)N[C@@H](CC(N)=O)C(=O)N[C@H](C(=O)N[C@@H](C)C(=O)N1CCC[C@H]1C(=O)N[C@@H](CCCNC(=N)N)C(=O)N[C@H](C(=O)N[C@@H](CCCCN)C(=O)N[C@H](C(=O)NCC(=O)N[C@@H](CO)C(=O)N[C@@H](CC(N)=O)C(=O)NCC(=O)N[C@@H](Cc1ccc(O)cc1)C(N)=O)C(C)C)[C@@H](C)O)C(C)C)[C@@H](C)O [compound 279] (H-GCRFGTCTVQ[Cit]LAHFLYQFTDKDKDNVAPRTKVGSNGY-NH2; disulfide 2-7; N-terminus assumed)
3 | 1.000% | 0.126 nM | CC[C@H](C)[C@H](NC(=O)[C@H](CCC(N)=O)NC(=O)[C@H](Cc1c[nH]cn1)NC(=O)[C@H](C)NC(=O)[C@H](CC(C)C)NC(=O)[C@H](CCCNC(=N)N)NC(=O)[C@H](CCC(N)=O)NC(=O)[C@@H](NC(=O)[C@@H](NC(=O)[C@@H]1CSSC[C@H](NC(=O)CN)C(=O)N[C@@H](CCCNC(=N)N)C(=O)N[C@@H]([C@@H](C)O)C(=O)NCC(=O)N[C@@H]([C@@H](C)O)C(=O)N1)[C@@H](C)O)C(C)C)C(=O)N[C@@H](Cc1ccc(O)cc1)C(=O)N[C@@H](CCC(N)=O)C(=O)N[C@@H](Cc1ccccc1)C(=O)N[C@H](C(=O)N[C@@H](CC(=O)O)C(=O)N[C@@H](CCCCN)C(=O)N[C@@H](Cc1ccccc1)C(=O)N[C@@H](CCCCN)C(=O)N[C@@H](CC(=O)O)C(=O)N[C@@H](CC(N)=O)C(=O)N[C@H](C(=O)N[C@@H](C)C(=O)N1CCC[C@H]1C(=O)N[C@@H](CCCNC(=N)N)C(=O)N[C@@H](CO)C(=O)N[C@@H](CCCCN)C(=O)N[C@H](C(=O)N[C@@H](CO)C(=O)N1CCC[C@H]1C(=O)N[C@@H](CCC(N)=O)C(=O)N[C@@H](Cc1c[nH]cn1)C(=O)N1C[C@H](O)C[C@H]1C(N)=O)[C@@H](C)CC)C(C)C)[C@@H](C)O [compound 201] (H-GCRTGTCTVQRLAHQIYQFTDKFKDNVAPRSKISPQH[Hyp]-NH2; disulfide 2-7; N-terminus assumed)
4 | 18.700% | 0.029 nM | CC[C@H](C)[C@H](NC(=O)[C@H](CCCCN)NC(=O)[C@@H](NC(=O)[C@H](CCCNC(=N)N)NC(=O)[C@@H]1CCCN1C(=O)[C@H](C)NC(=O)[C@@H](NC(=O)[C@H](CC(N)=O)NC(=O)[C@H](CC(=O)O)NC(=O)[C@H](CCCCN)NC(=O)[C@H](CC(=O)O)NC(=O)[C@H](CCCCN)NC(=O)[C@H](CC(=O)O)NC(=O)[C@@H](NC(=O)[C@H](Cc1ccccc1)NC(=O)[C@H](CCC(N)=O)NC(=O)[C@H](Cc1ccc(O)cc1)NC(=O)[C@@H](NC(=O)[C@H](CCC(N)=O)NC(=O)[C@H](Cc1c[nH]cn1)NC(=O)[C@H](C)NC(=O)[C@H](CC(C)C)NC(=O)[C@H](Cc1c[nH]c2ccccc12)NC(=O)[C@H](CCC(N)=O)NC(=O)[C@@H](NC(=O)[C@@H](NC(=O)[C@@H]1CSSC[C@H](NC(=O)CN)C(=O)N[C@@H](CCCNC(=N)N)C(=O)N[C@@H](Cc2ccccc2)C(=O)NCC(=O)N[C@@H]([C@@H](C)O)C(=O)N1)[C@@H](C)O)C(C)C)[C@@H](C)CC)[C@@H](C)O)C(C)C)[C@@H](C)O)C(=O)NCC(=O)N1CCC[C@H]1C(=O)N[C@@H](CCC(N)=O)C(=O)NCC(=O)N1C[C@H](O)C[C@H]1C(N)=O [compound 336] (H-GCRFGTCTVQWLAHQIYQFTDKDKDNVAPRTKIGPQG[Hyp]-NH2; disulfide 2-7; N-terminus assumed)

The next lines start with the molecule.

Row | SMILES | Max ThT signal (%) [1] | EC50 (hAMY3 receptor)
5 | CC[C@H](C)[C@H](NC(=O)[C@H](CCCCN)NC(=O)[C@@H](NC(=O)[C@H](CCCNC(=N)N)NC(=O)[C@@H]1CCCN1C(=O)[C@H](C)NC(=O)[C@@H](NC(=O)[C@H](CC(N)=O)NC(=O)[C@H](CC(=O)O)NC(=O)[C@H](CCCCN)NC(=O)[C@H](CC(=O)O)NC(=O)[C@H](CCCCN)NC(=O)[C@H](CC(=O)O)NC(=O)[C@@H](NC(=O)[C@H](Cc1ccccc1)NC(=O)[C@H](CCC(N)=O)NC(=O)[C@H](Cc1ccc(O)cc1)NC(=O)[C@@H](NC(=O)[C@H](CCC(N)=O)NC(=O)[C@H](Cc1c[nH]cn1)NC(=O)[C@H](C)NC(=O)[C@H](CC(C)C)NC(=O)[C@H](CCCNC(=N)N)NC(=O)[C@H](CCC(N)=O)NC(=O)[C@@H](NC(=O)[C@@H](NC(=O)[C@@H]1CSSC[C@H](NC(=O)CN)C(=O)N[C@@H](CCCNC(=N)N)C(=O)N[C@@H]([C@@H](C)O)C(=O)NCC(=O)N[C@@H]([C@@H](C)O)C(=O)N1)[C@@H](C)O)C(C)C)[C@@H](C)CC)[C@@H](C)O)C(C)C)[C@@H](C)O)C(=O)NCC(=O)N1CCC[C@H]1C(=O)N[C@@H](CCC(N)=O)C(=O)NCC(=O)N1C[C@H](O)C[C@H]1C(N)=O [compound 161] (H-GCRTGTCTVQRLAHQIYQFTDKDKDNVAPRTKIGPQG[Hyp]-NH2; disulfide 2-7; N-terminus assumed) | 14.300% | 0.051 nM
6 | CC[C@H](C)[C@H](NC(=O)[C@H](CCC(N)=O)NC(=O)[C@H](Cc1c[nH]cn1)NC(=O)[C@H](C)NC(=O)[C@H](CC(C)C)NC(=O)[C@H](CCCNC(=N)N)NC(=O)[C@H](CCC(N)=O)NC(=O)[C@@H](NC(=O)[C@@H](NC(=O)[C@@H]1CSSC[C@H](NC(=O)CN)C(=O)N[C@@H](CCCNC(=N)N)C(=O)N[C@@H]([C@@H](C)O)C(=O)NCC(=O)N[C@@H]([C@@H](C)O)C(=O)N1)[C@@H](C)O)C(C)C)C(=O)N[C@@H](Cc1ccc(O)cc1)C(=O)N[C@@H](CCC(N)=O)C(=O)N[C@@H](Cc1ccccc1)C(=O)N[C@H](C(=O)N[C@@H](CC(=O)O)C(=O)N[C@@H](CCCCN)C(=O)N[C@@H](CC(=O)O)C(=O)N[C@@H](CCCCN)C(=O)N[C@@H](CC(=O)O)C(=O)N[C@@H](CC(N)=O)C(=O)N[C@H](C(=O)N[C@@H](C)C(=O)N1CCC[C@H]1C(=O)N[C@@H](CCCNC(=N)N)C(=O)N[C@@H](CO)C(=O)N[C@@H](CC(N)=O)C(=O)N[C@H](C(=O)NCC(=O)N1CCC[C@H]1C(=O)N[C@@H](CCC(N)=O)C(=O)NCC(=O)N[C@@H](Cc1ccc(O)cc1)C(N)=O)C(C)C)C(C)C)[C@@H](C)O [compound 138] (H-GCRTGTCTVQRLAHQIYQFTDKDKDNVAPRSNVGPQGY-NH2; disulfide 2-7; N-terminus assumed) | 6.800% | 0.035 nM
